From patent publication US6479501B2 (priority 1996, dated 2002) come the findings set out here.

What is called melting point is the temperature of the solid-liquid transition. Broadly, the IC50 is the concentration that gives 50% inhibition.

Where a name gives a salt, the structure may show the parent alone. Read-outs that look alike come from different tables or passages of the source.

The target in one data set is T1, Monoamine Oxidase A (Rattus norvegicus, UniProt P21396).
T1 construct: serves as the tissue source for mitochondrial monoamine oxidase; from tissue; host or cells: rat whole brain minus cerebellum, P2 mitochondrial pellet
T1 sequence (P21396 1-526): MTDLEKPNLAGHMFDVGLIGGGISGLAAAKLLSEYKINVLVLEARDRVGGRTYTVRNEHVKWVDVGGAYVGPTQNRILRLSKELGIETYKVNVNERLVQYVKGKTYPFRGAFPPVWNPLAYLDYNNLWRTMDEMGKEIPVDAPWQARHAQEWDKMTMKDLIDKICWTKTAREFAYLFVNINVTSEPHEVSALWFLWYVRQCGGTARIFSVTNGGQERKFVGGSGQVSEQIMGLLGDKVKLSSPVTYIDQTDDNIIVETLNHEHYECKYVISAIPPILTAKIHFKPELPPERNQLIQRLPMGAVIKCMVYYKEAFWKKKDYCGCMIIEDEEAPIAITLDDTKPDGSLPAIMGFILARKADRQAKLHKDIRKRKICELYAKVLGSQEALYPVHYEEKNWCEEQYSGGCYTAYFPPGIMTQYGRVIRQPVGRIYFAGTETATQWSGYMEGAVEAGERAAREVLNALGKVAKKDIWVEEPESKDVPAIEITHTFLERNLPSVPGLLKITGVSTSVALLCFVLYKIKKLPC
As to the kind of experiment: in vitro inhibition of monoamine oxidase assay, monoamine oxidase-A. The settings on record: rat brain mitochondrial monoamine oxidase; substrate [3H]-5-hydroxytryptamine 200 μM; 30 minutes at 37° C. It is filed as biochemical, Male Wistar rats. The protocol: In this assay, a modification of an assay described by M. V. Kindt, et al., Europ. J. Pharmnacol. 146: 313-318 1988.
1. Phosphate buffer (0.5 M), pH 7.4; 134.4 g dibasic sodium phosphate heptahydrate q.s. to 1 liter in distilled water (A) 17.3 g monobasic sodium phosphate q.s. to 250 ml in distilled water (B) Adjust pH of A to 7.4 by slowly adding B (volumes as needed) Dilute 1:10 in distilled water (0.05 M phosphate buffer, pH 7.4) 2. 0.25 M Sucrose (phosphate buffered): 21.4 g sucrose, q.s. to 250 nil with 0.05 M phosphate buffer a. serotonin creatine sulphate (5-hydroxytryptamine) is obtained from Sigma Chemical Company. A 5 mM stock solution ig made up in 0.01 N-hydrochloric acid. The solution is used to dilute the specific activity of the [^3H]-hydroxytryptamine. […]
b. [^3H]-5-hydroxytryptamine binoxalate (20-30 Ci/mmol) is obtained from New England Nuclear. c. Add 12 μl of [^3H]-5-hydroxytryptamine to 2 ml of the 5 mM 5-hydroxytryptamine solution. (Final amine concentration in the assay is 200 μM: see below.)
5. Equal amounts of monoamine oxidase-A (5-hydroxyttyptamine) and monoamine oxidase-B (β-phenethylamine) substrates are combined for simultaneously testing both monoamine oxidase types, i.e., mixed stock solution of 2.5 mM 5-hydroxytryptamine and 2.5 mM β-phenethylamine. 40 μl of this mixed solution gives a 200 μM final concentration of each amine in the assay. When testing only one monoamine oxidase type, the individual 5 mM stock solutions must be diluted 1:1 with distilled water prior to adding 40 μl to the incubation mixture; i.e., same 200 μM final amine concentration.
6. Stock solutions of test drugs are made up in appropriate vehicles and serially diluted to give final concentrations ranging from 10^−7 to 10^−3 molar in the assay. […]
Tubes are preincubated for 15 minutes at 37° C. and the assay is started by adding 40 μl of combined substrate ([^3H]-5-hydroxytryptamine and [^14C]-β-phenethylamin) at 15 second intervals. […] Tissue blank values are determined by adding the acid before the radioactive substrate. […] IC50 values are determined by log-probit analysis.

For the next data set, the target named is T2, Monoamine Oxidase B (Rattus norvegicus, UniProt P19643).
T2 construct: serves as the tissue source for mitochondrial monoamine oxidase; from tissue; host or cells: rat whole brain minus cerebellum, P2 mitochondrial pellet
T2 sequence (P19643 1-520): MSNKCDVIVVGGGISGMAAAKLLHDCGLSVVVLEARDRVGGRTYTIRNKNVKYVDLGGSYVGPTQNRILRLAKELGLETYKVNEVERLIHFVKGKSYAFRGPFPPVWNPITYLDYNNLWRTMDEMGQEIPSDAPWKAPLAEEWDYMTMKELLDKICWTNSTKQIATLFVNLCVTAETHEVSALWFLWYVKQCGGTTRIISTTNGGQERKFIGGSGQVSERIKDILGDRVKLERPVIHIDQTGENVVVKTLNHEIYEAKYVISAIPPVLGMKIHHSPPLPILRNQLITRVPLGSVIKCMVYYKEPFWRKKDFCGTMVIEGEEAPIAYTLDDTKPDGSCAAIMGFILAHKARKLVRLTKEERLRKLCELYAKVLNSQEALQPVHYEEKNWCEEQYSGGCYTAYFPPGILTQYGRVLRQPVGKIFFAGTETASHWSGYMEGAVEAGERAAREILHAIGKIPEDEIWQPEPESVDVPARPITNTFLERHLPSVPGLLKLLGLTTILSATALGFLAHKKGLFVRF
The data set is described as follows: in vitro inhibition of monoamine oxidase assay, monoamine oxidase-B. The class given is biochemical, Male Wistar rats. The settings on record: rat brain mitochondrial monoamine oxidase; substrate [14C]-β-phenethylamine 200 μM; 30 minutes at 37° C.

The next data set deals with T3, Acetylcholinesterase (Rattus norvegicus, UniProt P37136).
T3 construct: corpora striata dissected free, weighted and homogenized in 19 volumes; from tissue; host or cells: rat corpus striatum homogenate
T3 sequence (P37136 32-614): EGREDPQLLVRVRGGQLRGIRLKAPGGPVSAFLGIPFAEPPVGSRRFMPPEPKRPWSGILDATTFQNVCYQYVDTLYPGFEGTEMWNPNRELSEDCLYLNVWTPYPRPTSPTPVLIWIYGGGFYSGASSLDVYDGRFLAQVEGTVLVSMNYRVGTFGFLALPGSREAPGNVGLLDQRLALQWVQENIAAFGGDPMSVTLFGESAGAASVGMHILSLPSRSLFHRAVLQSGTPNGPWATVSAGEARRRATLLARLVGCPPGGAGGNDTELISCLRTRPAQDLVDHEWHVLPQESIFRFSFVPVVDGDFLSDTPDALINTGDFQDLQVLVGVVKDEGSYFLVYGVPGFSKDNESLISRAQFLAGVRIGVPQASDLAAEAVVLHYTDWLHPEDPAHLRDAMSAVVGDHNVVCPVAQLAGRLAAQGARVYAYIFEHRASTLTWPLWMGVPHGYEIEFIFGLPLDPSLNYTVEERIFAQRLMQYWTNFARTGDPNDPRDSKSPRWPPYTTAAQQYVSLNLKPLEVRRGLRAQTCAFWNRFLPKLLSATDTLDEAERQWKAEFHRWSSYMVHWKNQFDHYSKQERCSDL
The data set is described as follows: biochemical. Further details: species or system Male Wistar rats.

Description for Monoamine Oxidase B: Phosphate buffer (0.5 M), pH 7.4; 134.4 g dibasic sodium phosphate heptahydrate q.s. to 1 liter in distilled water (A) 17.3 g monobasic sodium phosphate q.s. to 250 ml in distilled water (B) Adjust pH of A to 7.4 by slowly adding B (volumes as needed) Dilute 1:10 in distilled water (0.05 M phosphate buffer, pH 7.4) 2. 0.25 M Sucrose (phosphate buffered): 21.4 g sucrose, q.s. to 250 nil with 0.05 M phosphate buffer a. β-phenethylamine is obtained from Sigma Chemical Company. A 5 mM stock solution is made up in 0.01 N-hydrochloric acid. The solution is used to dilute the specific activity of the [^14C]-β-phenethylamine.
b. β-[ethyl-1-^14C]-phenethylamine hydrochloride (40-50 mCi/mmol) is obtained from New England Nuclear. c. Add 12 μl of [^14C]-β-phenothylaamine to 2 ml of the 5 mM β-phenethylamine solution. (Final amine concentration in the assay is 200 μM: see below.) […]

`COc1ccc(NN=C2CCCC23CCNCC3)cc1` (as salt: hydrochloride) [8-Azaspiror4,5]decane-1-[N′-(4-methoxy)phenyl]hydrazone hydrochloride] showed a melting point of 252 to 253 °C.

The compound `COc1cccc(CN2CCC3(CCc4c3n(C)c3ccccc43)CC2)c1` [1,4-Dihydro-1′-(3-methoxyphenyl)methyl-4-methylspiro[cyclopent[b]indole-3(2H), 4′piperidine]] gave an IC50 against Monoamine Oxidase A of 51.2 µM.

Consider `COc1ccc(CN2CCC3(CCc4c3n(C)c3ccccc43)CC2)cc1` [1,4-Dihydro-1′-(4-methoxyphenyl)methyl-4-methylspiro[cyclopent[b]indole-3(2H), 4′-piperidine]], for which the IC50 was 125 µM on Monoamine Oxidase B, 98.6 µM against Monoamine Oxidase A and 65.2 µM at Acetylcholinesterase (read-out: Inhibition of Acetylcholinesterase Activity IC50).

The compound `Cn1c2c(c3ccccc31)CCC21CCNCC1` [1,4-Dihydro-4-methylspiro[cyclopent[b]indole-3(2H), 4′-piperidine]hydrochloride] gave an IC50 against Acetylcholinesterase of 84.1 µM.

In turn, `CN(C)C(=O)Oc1ccc2c(c1)c1c(n2C)C2(CCNCC2)CC1` [1,4-Dihydro-7-dimethylaminocarbonyloxy-4-methylspirorcyclopentfblindole-3(2H), 4′-piperidine]hemihydrate] returned an IC50 against Acetylcholinesterase of 64 µM.

Regarding `Cn1c2c(c3cc(O)ccc31)CCC21CCN(Cc2ccccc2)CC1` [1,4-Dihydro-7-hydroxy-4-methyl-1′-phenylmethylspiro[cyclopent[b]indole-3(2H), 4′-piperidine hydrochloride], the IC50 against Acetylcholinesterase amounted to 20.4 µM.

Regarding `COc1ccc(NN=C2CCCC23CCNCC3)cc1` [8-Azaspiror4,5]decane-1-[N′-(4-methoxy)phenyl]hydrazone hydrochloride], the IC50 at Monoamine Oxidase B amounted to 3.7 µM; against Monoamine Oxidase A it was 37.2 µM.
